Laboratory results published in patent US9623125B2, “Controlled synthesis of polyglutamates with low polydispersity and versatile architectures” (Fundacion de la Comunidad Valenciana “Centro De …, priority 2011, dated 2017).

Test: Stability of NCA under different storage conditions
Assay type: physicochemical
Set-up: key: a “−” symbol means the monomer was found already polymerized/degraded; “+” means monomer was found to be stable
Description: Absence of HCl in the purified NCAs was confirmed by means of a silver nitrate solution. The presence of HCl can be identified by the precipitation of silver chloride when some drops of a solution 1M of AgNO3 are added to a solution of the monomer. The purity of the NCA is the main criteria to ensure long term storage. This issue was corroborated with stability studies of the NCA under different storage conditions.

Measured: Stability of NCA on storage

O=C(CCC1NC(=O)OC1=O)OCc1ccccc1 (centres unmarked) [NCA, Benzyl 3-(2,5-dioxooxazol-4-il)propanoate]
+: 4° C., 5 d | 4° C., 6 d | 4° C./Ar, 5 d | 4° C./Ar, 6 d | 4° C./Ar, 7 d | 4° C./Ar, 8d | 4° C./Ar, 10 d | 4° C./Ar, 11 d | −23° C., 5 d | −23° C., 6 d | −23° C., 7 d | −23° C., 8d | −23° C., 10 d | −23° C., 11 d | −23° C., 20 d | −23° C., 50 d | −23° C./Ar, 5 d | −23° C./Ar, 6 d | −23° C./Ar, 7 d | −23° C./Ar, 8d | −23° C./Ar, 10 d | −23° C./Ar, 11 d | −23° C./Ar, 20 d | −23° C./Ar, 50 d
−: 4° C., 8d | 4° C., 10 d | 4° C., 11 d | 4° C., 20 d | 4° C., 50 d | R.T, 5 d | R.T, 6 d | R.T, 7 d | R.T, 8d | R.T, 10 d | R.T, 11 d | R.T, 20 d | R.T, 50 d | R.T/Ar, 6 d | R.T/Ar, 7 d | R.T/Ar, 8d | R.T/Ar, 10 d | R.T/Ar, 11 d | R.T/Ar, 20 d | R.T/Ar, 50 d
